Experiment: Solution-based assay: residual trans-polydatin after irradiation with 1 molar equivalent of isomerization stabilizer
Assay type: physicochemical
Conditions: for Average of Relative Residual Trans-polydatin (percent): 0.5% by weight trans-polydatin in solution + 1 molar equivalent stabilizer, irradiated at 365 nm, 5 J total energy, HPLC-UV, per stabilizer; for Photo-stabilization of trans-polydatin in solution (in words): 365 nm, 5 J, comment on Table 2
Description: The stabilization of polydatin was evaluated in a solution-based assay where residual trans-polydatin percentage was determined after exposure to radiation. According to the experimental method, trans-polydatin was dissolved in an appropriate solvent at 0.5% by weight. To this solution was added 1 molar equivalent of an isomerization stabilizer. An aliquot of the resulting solution was diluted with methanol and the amount of trans-polydatin was quantified by HPLC-UV. The solution containing trans-polydatin and the additive was irradiated under controlled conditions at 365 nm using 5 J of total energy. An aliquot of the irradiated solution was diluted in methanol and the amount of trans-polydatin was quantified by HPLC-UV. The residual trans-polydatin was calculated by dividing the quantified amount of trans-polydatin obtained from the irradiated solution by the amount of trans-polydatin obtained from the non-irradiated solution and is expressed as a percentage. The relative residual is indicated for each photoisomerization stabilizer and is calculated as an average relative residual for classes of photoisomerization stabilizers where indicated.

Average of Relative Residual Trans-polydatin (percent) [%] | Photo-stabilization of trans-polydatin in solution (in words) | Molecule
30.6 |  | COc1ccc([C@@H]2CC(=O)c3c(O)cc(O)cc3O2)cc1O [Hesperetin]
63.3 |  | O=c1cc(-c2ccc(O)c(O)c2)oc2cc(O)cc(O)c12 [Luteolin]
−0.9 | ineffective | O=C(O)C(O)c1ccccc1 (stereo not drawn) [Mandelic acid]
−0.3 | ineffective | NC(=O)c1cccnc1 [Niacinamide]
24.8 |  | O=c1c(O)c(-c2ccc(O)c(O)c2)oc2cc(O)cc(O)c12 [Quercetin]
38.3 |  | O=C1c2c(O)cc(O)cc2O[C@H](c2ccc(O)c(O)c2)[C@H]1O [Taxifolin]
6.9 | ineffective | O=C1O[C@H]([C@@H](O)CO)C(O)=C1O[C@H]1O[C@H](CO)[C@@H](O)[C@H](O)[C@H]1O [Vitamin CG]
38.6 |  | O=C(O)/C=C/c1ccc(O)cc1 [p-coumaric acid]
0.6 | ineffective | Vitamin E

Continued, molecule first:

Molecule | Average of Relative Residual Trans-polydatin (percent) [%] | Photo-stabilization of trans-polydatin in solution (in words)
O=c1cc(-c2ccc(O)cc2)oc2cc(O)cc(O)c12 [Apigenin] | 66.7 | 
Cc1cc(C(C)(C)C)c(O)c(C(C)(C)C)c1 [BHT, tert-butylhydroxytoluene] | −3.1 | ineffective
O=c1cc(-c2ccccc2)oc2cc(O)c(O)c(O)c12 [Baicalein] | 42.9 | 
O=C(O)[C@H]1O[C@@H](Oc2cc3oc(-c4ccccc4)cc(=O)c3c(O)c2O)[C@H](O)[C@@H](O)[C@@H]1O [Baicalin] | 32.3 | 
O=C(O[C@@H]1Cc2c(O)cc(O)cc2O[C@@H]1c1cc(O)c(O)c(O)c1)c1cc(O)c(O)c(O)c1 [Epigallocatechine gallate] | 0.4 | 
COc1cc(/C=C/C(=O)O)ccc1O [Ferulic acid] | 35.5 | 
O=C(O)c1cc(O)c(O)c(O)c1 [Gallic acid] | −0.3 | ineffective
COc1ccc([C@@H]2CC(=O)c3c(O)cc(O[C@@H]4O[C@H](CO[C@@H]5O[C@@H](C)[C@H](O)[C@@H](O)[C@H]5O)[C@@H](O)[C@H](O)[C@H]4O)cc3O2)cc1O [Hesperidine] | 41.6 | 
Glycosyl Hesperidin | 31.0 | 

Reference: patent publication US12168067B2, “Photostable antioxidant cosmetic composition” (priority 2019, dated 2024)
